Experimental data reported in patent publication US20150152122A1, “TYROSINASE INHIBITORS” (Avon Products, Inc., priority 2013, published 2015).

Legend:
[1] = system: Mushroom tyrosinase; experiment: Mushroom tyrosinase assay; format: biochemical; details: percent change vs DMSO vehicle, L-Tyrosine substrate, 25° C., 30 min
Procedure: Mushroom tyrosinase and L-Tyrosine were obtained from Sigma-Aldrich, Inc. (St. Louis, Mo.). The enzyme activity was measured in buffer containing 100 mM phosphate buffer pH 6.8, 5% absolute ethanol, 2 micrograms/milliiliter mushroom tyrosinase, and 0.2 mg/ml L-Tyrosine. The reaction (conversion of L-Tyrosine to DOPAchrome) was conducted in triplicates at 25° C. for 30 min, and absorbance was then measured at 492 nm. Kojic Acid was used as a positive control inhibitor in these assays. Percent change in tyrosinase activity relative to vehicle control was calculated.

[2] = system: B16 mouse melanoma cells; experiment: Inhibition of melanin production in B16 melanoma cell assay; format: cell-based; details: 4 days, normalized to cell viability (MTT), alpha MSH 2 ng/ml
Procedure: The effects of various test compounds on melanin levels were determined by performing assays using B16 melanoma cells. These cells are known to constitutively produce melanin and are a commonly utilized and accepted model system for monitoring the inhibition of melanin synthesis. The B16 mouse melanoma cells were seeded (ATCC, cat. #: CRL-6475) into 96-well tissue culture-treated plates (BD Falcon) and treated with test actives or controls in phenol red free DMEM (Mediatech; cat. #: 17-205-CV) with 2 nanogram/ml of alpha MSH (Fluka; cat #: 63605). The cells were examined for their ability to modulate pigment formation. […] Tests were performed in 6 replicates each. Following the treatment period (4 days), the level of pigment produced or melanin synthesized was quantified by reading the absorbance at 540 nm using a standard microplate reader (Tecan Group Ltd.).
After quantifying the amount of melanin, cell viability was determined using the MTT conversion method. The MTT conversion method measures the reduction of the MTT dye from a yellow colored, water-soluble, tetrazolium salt to a bluish-purple colored insoluble formazan precipitate by NAD(P)H-dependent microsomal dehydrogenase enzymes, which only function in viable cells. The intensity of the blue color is indicative of cell viability. After quantifying the amount of melanin pigment produced, the cells were exposed to MTT dye solution (1 mg/ml) for two to three hours. Formazan material was solubilized with reagent alcohol (95% ethanol: 5% isopropanol) and shaken on an orbital shaker for 15-30 minutes. MTT dye uptake and conversion by viable cells were determined by measuring the extracted formazan at 570 nm using a microplate reader. Total pigmentation was calculated, normalized to cell viability values and expressed as the average percent change in melanin activity relative to control of the six experiments performed.

[3] = system: human skin explants; experiment: Melanin production in human skin explants; format: cell-based; details: human skin explant
Procedure: The effects of test compound AV7909 on melanin levels in human skin explants were determined relative to a DMSO control and Kojic Acid benchmark.

[4] = system: Human Epidermal Melanocytes, neonatal, darkly pigmented donor (HEMn-DP); experiment: Human Primary Melanocyte Pigmentation Assay (HEMn-DP); format: cell-based; details: 5 days, normalized to cell viability
Procedure: The effects of various test compounds on melanin productions were determined by performing assays using Human Epidermal Melanocytes, neonatal, darkly pigmented donor (HEMn-DP). The HEMn-DP cells were seeded (Invitrogen; cat. #: C-202-5C) into 6-well tissue culture-treated plates (BD Falcon) and treated with test actives or controls in Medium 254 (Invitrogen; cat. #: M-254-500) supplemented with 1% HMSG (Invitrogen; cat. #: S-002-5) and 1% PS. The cells were examined for their ability to modulate pigment formation. […] Tests were performed in triplicates each. Following the treatment period (5 days), supernatants were aspirated. The melanin was extracted with 0.5 ml of 2N NaOH for 30 minutes at 80° C. The level of melanin synthesized within the cells was quantified by reading the absorbance at 405 nm using a standard microplate reader (Tecan Group Ltd.).
The cell viability was determined using the MTT conversion method. The MTT conversion method measures the reduction of the MTT dye from a yellow colored, water-soluble, tetrazolium salt to a bluish-purple colored insoluble formazan precipitate by NAD(P)H-dependent microsomal dehydrogenase enzymes, which only function in viable cells. […] MTT dye uptake and conversion by viable cells were determined by measuring the extracted formazan at 570 nm using a microplate reader. Total pigmentation was calculated and normalized to cell viability values. […]

[5] = system: MELANODERM (MEL-300-B) human skin model; experiment: 3D skin equivalent tissue pigmentation assay (MELANODERM); format: cell-based; details: topical 10 μl, Day 11
Procedure: The effect of the tyrosinase inhibitors on melanin levels was investigated using a MELANODERM™ (MEL-300-B, MatTek Corp., Ashland, Mass.) human skin model. MELANODERM™ is a viable reconstituted three-dimensional human skin equivalent containing melanocytes derived from African-American donors. Tissues were maintained in culture medium EPI-100-NMM-113 at 37° C. as recommended by the manufacturer.
The compounds were dissolved in either 69% propylene glycol+30% EtOH+1% DMSO or 70% propylene glycol+30% EtOH desired concentration (w/v). 10 μl of the solution was applied topically to the MELANODERMTM tissue while culture medium was added on days 1, 2, 4, 7, and 9. Control tissues were treated with the 10 μl of corresponding vehicle only. On Day 11, tissues were collected and homogenized in a buffer containing 1% SDS, 50 mM EDTA, and 10 mM Tris, pH 6.8. To each homogenate, protease K (5 mg/ml) was added and incubated overnight at 45° C. Additional protease K was added and incubated for 4 hours at 45° C., followed by the addition of 0.5M sodium carbonate and 30% H2O2 and incubation at 80° C. for 30 minutes. The samples were cooled down to room temperature, and extracted with chloroform/methanol (2:1). After centrifugation at 10,000 g for 10 minutes, absorbance of the top phase was measured at 450 nm. Percent change in melanin levels in treated tissue was calculated relative to control. The average percent change in melanin relative to control of the three tissues is reported in the Table 5 in accordance with the scale: 0: <7% decrease in pigmentation level; +: between 8-14% decrease; ++: between 15-20% decrease; +++: between 21-30% decrease; ++++: >31% decrease; C=cytotoxic

Tyrosinase Activity relative to Vehicle Control ([1]; concentration 0.0100%) [%] | Tyrosinase Activity relative to Vehicle Control ([1]; concentration 0.0010%) [%] | Compound | B16 Assay Percent Change Melanin Compared to Vehicle ([2]; concentration 0.0001%) [%] | B16 Assay Percent Change Melanin Compared to Vehicle ([2]; concentration 0.0010%) [%] | Pigment Production (percent change in melanin compared to DMSO vehicle control) ([3]; concentration 0.1%) [%] | HUMAN PRIMARY MELANOCYTE PIGMENTATION ASSAY (change in melanin compared to DMSO vehicle control) ([4]; concentration 0.0001%) | HUMAN PRIMARY MELANOCYTE PIGMENTATION ASSAY (change in melanin compared to DMSO vehicle control) ([4]; concentration 0.001%) | 3D Tissue Pigmentation Assay (change in melanin compared to vehicle control) ([5]; concentration 0.05% (w/v)) | 3D Tissue Pigmentation Assay (change in melanin compared to vehicle control) ([5]; concentration 0.1% (w/v)) | 3D Tissue Pigmentation Assay (change in melanin compared to vehicle control) ([5]; concentration 0.25% (w/v)) | Pigment Production (percent change in melanin compared to DMSO vehicle control) ([3]; concentration 0.5%) [%] | 3D Tissue Pigmentation Assay (change in melanin compared to vehicle control) ([5]; concentration 0.5% (w/v))
−81 |  | CC(C)c1nc(=S)[nH]n1-c1ccccc1 [AV1973] | −17 | −60 |  |  |  |  |  |  |  | 
 |  | O=c1cc(CO)occ1O [Kojic Acid, Kojic acid (5-hydroxy-4-pyran-4-one-2-methyl), reference compound] |  |  | −23 |  |  |  |  |  |  | 
−53 | −75 | S=c1nc(-c2cccs2)cn[nH]1 [AV4926] |  | −49 |  |  |  |  |  |  |  | 
−77 | −48 | S=c1[nH]nc(-c2ccc3c(c2)OCO3)o1 [AV5828] | −13 | −30 |  |  |  |  |  |  |  | 
−49 | −73 | Sc1nnc2sc3ccccc3n12 [AV0442] |  | −19 |  |  |  |  |  |  |  | 
−70 | −74 | Cn1c2ccccc2n2c(=S)[nH]nc12 [AV7533] | −31 | −63 |  | 0 (<10% decrease in pigmentation level) | ++ (between 31-50% decrease) | + (between 8-14% decrease) | + (between 8-14% decrease) | ++ (between 15-20% decrease) |  | 
−70 | −82 | Cc1cc(C)n(-c2ccc(=S)[nH]n2)n1 [AV7909] | −17 | −79 | −17 |  |  |  | ++ (between 15-20% decrease) | +++ (between 21-30% decrease) | −28 | ++++ (>31% decrease)
